Data on one molecule can be found in US9233121B2, “Compositions and methods for the treatment of cancer” (BOARD OF REGENTS OF THE UNIVERSITY OF NEBRASKA, priority 2011, dated 2016).

Holding throughout (format): cell-based, human
One experiment relates to ALDH1. The experiment is described as follows: Western blot of ALDH1 in gemcitabine treated SP cells. The conditions noted are these: gemcitabine (6 μM) treated SW1990-SP cells compared to non-treated SP cells. On the procedure:
(§1) SP and NSP cells were processed for protein extraction and western blotting using standard procedures. Briefly, the cells were washed twice in PBS and lysed in RIPA buffer (100 mM Tris, 5 mM EDTA, 5% NP40; pH8.0) containing protease inhibitors (1 mM phenyl-methyl sulphonyl fluoride, 1 μg/ml aprotinin, 1 μg/ml leupeptin) and kept at 4° C. and supernatant were collected. Resolved proteins were transferred on to the PVDF membrane. After a quick wash in PBST (Phosphate buffered saline and 0.1% Tween 20), the membranes were blocked in 5% nonfat dry milk in PBS for at least 1 hour and then incubated with primary antibodies (anti-hPaf1/PD2, anti-ALDH1, anti-CD133, anti-CD44, anti-Shh and anti-β-actin) (diluted in 3% BSA in PBS) for overnight at 4° C. Then the membrane was washed (3×10 minutes) in PBST at room temperature and probed with 1:2000 diluted horseradish peroxidase-conjugated anti-mouse or anti-rabbit secondary antibodies for 1 hour at room temperature and washed 5×10 minutes with PBST. The signal was detected with an ECL chemiluminescence kit (Amersham Bioscience, UK).
(§2) Tumor relapse occurs in cancer patients due to the important phenomena known as drug resistance. […] The expression of ALDH1 was analyzed in the gemcitabine treated SW1990-SP cells.

The test system of experiment [1] is SW1990-SP cells. The experiment is described as follows: hPaf1/PD2 knockdown with gemcitabine treatment in SP cells: phenotype, viability, FACS apoptosis. The method, then:
The human hPaf1/PD2 region was targeted with specific siRNA (sequence 5′-[…]-3′; SEQ ID NO: 1). Synthetic sense and antisense oligonucleotides (Dharmacon, Lafayette, Colo.) were annealed in 100 mM potassium acetate, 30 mM HEPES-KOH (pH 7.4), and 2 mM magnesium acetate for one minute at 90° C. and one hour at 37° C., and frozen. Oligonucleotides were transfected into cells with TransIT-TKO (Mirus, Madison, Wis.) in accordance with the supplier's recommendations. Gemcitabine (6 μM) treatment was done for 20 days.
Following the previous drug sensitivity experiment, hPaf1/PD2 was transiently knocked down using RNAi oligos. The knockdown was carried out in vitro under stem cell specific culture condition.

The next experiment concerns hPaf1/PD2. The experiment in a line: Western blot of hPaf1/PD2 in gemcitabine treated SP cells. The conditions noted are these: gemcitabine (6 μM) treated SW1990-SP cells compared to untreated SP cells. On the procedure: as §1
In general terms: Immunoblotting shows a protein as a band on a membrane.

In another experiment the test system is SW1990 NSP cells. The experiment is described as follows: Drug sensitivity: gemcitabine treatment of NSP cells. The conditions noted are these: 6.0 μM gemcitabine, several days. On the procedure: (§3) Both SP and NSP cells were cultured in gelatinized tissue culture dishes in stem cell specific medium containing Dulbecco's Modified Eagle's Medium (DMEM; GIBCO) and F12 supplemented with 10% ES specific fetal bovine serum (FBS; Invitrogen), L-glutamine (GIBCO), 100 nM nonessential amino acids (GIBCO), 1000 U/ml LIF (Sigma), bFGF (Invitrogen) and Pen/Strp. Two different conditions were maintained for both SP and NSP cells. First, both SP and NSP cells were maintained in the above-mentioned stem cell specific media and in another condition both the cells were maintained for a few days in 10% FBS containing DMEM media which was replaced with stem cell specific medium. The SP cells have also been grown in stem cell specific media and NSP cells have been grown in 10% FBS containing DMEM media.
(§4) The human hPaf1/PD2 region was targeted with specific siRNA (sequence 5′-[…]-3′; SEQ ID NO: 1). Synthetic sense and antisense oligonucleotides (Dharmacon, Lafayette, Colo.) were annealed in 100 mM potassium acetate, 30 mM HEPES-KOH (pH 7.4), and 2 mM magnesium acetate for one minute at 90° C. and one hour at 37° C., and frozen. […]
as §2

Experiment [2] relates to SW1990-SP cells. The experiment in a line: Drug sensitivity: gemcitabine treatment of SP cells. The conditions noted are these: 6.0 μM gemcitabine, 4, 10 and 20 days. On the procedure:
as §3, §4, §2

For `Nc1ccn([C@@H]2O[C@H](CO)[C@@H](O)C2(F)F)c(=O)n1` [gemcitabine], the “expression of ALDH1 (western blot)” value with ALDH1 is recorded as “significantly elevated expression of ALDH1”. In addition, in the experiment with SW1990-SP cells [1] (hPaf1/PD2 knockdown SP cells with gemcitabine treatment compared to control cells), the “percentage of cell death (FACS-apoptosis analysis, PI staining)” value was “increased percentage of cell death”. Moreover, in the experiment on SW1990-SP cells [1] (seven days gemcitabine with transient knockdown (72 hours) of hPaf1/PD2 in SW1990-SP cells), the “viability of SP cells” value is “decreased the viability of SP cells”. Besides, in the experiment on hPaf1/PD2, the “expression of hPaf1/PD2 (western blot)” value is listed as “maintained”. In addition, in the experiment with SW1990 NSP cells, the “cell death of NSP cells on drug treatment” value is “Cell death was observed”. Besides, the “growth of SP cells on drug treatment” value in the experiment on SW1990-SP cells [2] was “continued to grow even after 4, 10 and 20 days of treatment”.
